Measurements as given in US20260062422A1 (Halda Therapeutics OpCo, Inc., priority 2022, published 2026).

Experiments:
[1] = tested on: T-Rex 293 cell line SC3 cells lacking increased expression of androgen receptor protein; test: Cellular growth inhibition, T-Rex 293 SC3 cells without doxycycline, CellTiter-Glo; format: cell-based; details: 72 h, T-Rex 293 SC3 cells not exposed to doxycycline, CellTiter-Glo 2.0
Outline: (§1)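 Doxycycline-inducible androgen receptor T-Rex 293 clone SC3, seeded at 2500/well in phenol red-free DMEM with 10% charcoal-dextran FBS, without doxycycline or with 10 ng/mL to induce receptor. Compound added after 24 h (0.5% DMSO), 72 h at 37 °C; CellTiter-Glo 2.0 luminescence, GI50 by four-parameter fit.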

[2] = tested on: T-Rex 293 cell line SC3 cells having increased expression of androgen receptor protein due to exposure to doxycycline; test: Cellular growth inhibition, T-Rex 293 SC3 cells with doxycycline (androgen receptor induced), CellTiter-Glo; format: cell-based; details: 72 h, T-Rex 293 SC3 cells with 10 ng/mL doxycycline (increased androgen receptor expression)
Outline: as §1

[3] = tested on: T47D cells; test: Cellular growth inhibition assay for T47D cells, CellTiter-Glo; format: cell-based, human; details: Homo sapiens, T47D, 72 h, 72 hours treatment, CellTiter-Glo 2.0 cell viability
Outline: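 Growth inhibition as GI50, fitted with four parameters to CellTiter-Glo luminescence after 72 h of compound exposure (0.5% DMSO). Cells were T47D, grown in insulin-supplemented (0.2 units/mL) DMEM with 10% FBS and treated one day post-seeding.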

Row | SMILES | GI50 [3] [nM] | GI50 [1] [nM] | GI50 [2] [nM]
1 | CCNC(=O)C[C@@H]1N=C(c2ccc(OCCOC3CCN(c4ncc(C(=O)N[C@H]5C(C)(C)[C@H](Oc6ccc(C#N)c(Cl)c6)C5(C)C)cn4)CC3)cc2F)c2c(sc(C)c2C)-n2c(C)nnc21 [Compound I-75] | < 500 | 500 to 1500 | < 500
2 | CCNC(=O)C[C@@H]1N=C(c2ccc(OCCOC3CCN(c4ncc(C(=O)N[C@H]5C(C)(C)[C@H](Oc6ccc(C#N)c(Cl)c6)C5(C)C)cn4)CC3)c(F)c2)c2c(sc(C)c2C)-n2c(C)nnc21 [Compound I-76] | 500 to 1500 | 500 to 1500 | < 500
3 | CCNC(=O)C[C@@H]1N=C(c2ccc(OCCCN(C)c3ncc(C(=O)N[C@H]4C(C)(C)[C@H](Oc5ccc(C#N)c(Cl)c5)C4(C)C)cn3)cc2)c2c(sc(C)c2C)-n2c(C)nnc21 [Compound I-81] | 500 to 1500 | 500 to 1500 | < 500
4 | CCNC(=O)C[C@@H]1N=C(c2ccc(OCCCC#Cc3ncc(C(=O)N[C@H]4C(C)(C)[C@H](Oc5ccc(C#N)c(Cl)c5)C4(C)C)cn3)cc2)c2c(sc(C)c2C)-n2c(C)nnc21 [Compound I-83] | 500 to 1500 | 500 to 1500 | < 500
5 | CCNC(=O)C[C@@H]1N=C(c2ccc(Oc3ncc(C(=O)N[C@H]4C(C)(C)[C@H](Oc5ccc(C#N)c(Cl)c5)C4(C)C)cn3)cc2)c2c(sc(C)c2C)-n2c(C)nnc21 [Compound I-84] | 1500 to 3000 | 1500 to 3000 | 500 to 1500
6 | CCNC(=O)C[C@@H]1N=C(c2ccc(OC3CCN(C4CCN(c5ncc(C(=O)N[C@H]6C(C)(C)[C@H](Oc7ccc(C#N)c(Cl)c7)C6(C)C)cn5)CC4)C3)cc2)c2c(sc(C)c2C)-n2c(C)nnc21 (stereo partly drawn) [Compound I-85] | < 500 | > 3000 | < 500
7 | CCNC(=O)C[C@@H]1N=C(c2ccc(OCCCCc3ncc(C(=O)N[C@H]4C(C)(C)[C@H](Oc5ccc(C#N)c(Cl)c5)C4(C)C)cn3)cc2)c2c(sc(C)c2C)-n2c(C)nnc21 [Compound I-86] | 500 to 1500 | 1500 to 3000 | < 500
8 | CCNC(=O)C[C@@H]1N=C(c2ccc(CCCC3CCN(c4ncc(C(=O)N[C@H]5C(C)(C)[C@H](Oc6ccc(C#N)c(Cl)c6)C5(C)C)cn4)CC3)cc2)c2c(sc(C)c2C)-n2c(C)nnc21 [Compound I-95] | < 500 | < 500 | < 500
9 | Cc1sc2c(c1C)C(c1ccc(CCCOC3CCN(c4ncc(C(=O)N[C@H]5C(C)(C)[C@H](Oc6ccc(C#N)c(Cl)c6)C5(C)C)cn4)CC3)cc1)=N[C@@H](CC(=O)NC(C)C)c1nnc(C)n1-2 [Compound I-100] | 500 to 1500 | > 3000 | < 500
10 | CCN(C)C(=O)C[C@@H]1N=C(c2ccc(CCCOC3CCN(c4ncc(C(=O)N[C@H]5C(C)(C)[C@H](Oc6ccc(C#N)c(Cl)c6)C5(C)C)cn4)CC3)cc2)c2c(sc(C)c2C)-n2c(C)nnc21 [Compound I-101] | 500 to 1500 | > 3000 | < 500
11 | Cc1sc2c(c1C)C(c1ccc(CCCOC3CCN(c4ncc(C(=O)N[C@H]5C(C)(C)[C@H](Oc6ccc(C#N)c(Cl)c6)C5(C)C)cn4)CC3)cc1)=N[C@@H](CC(=O)NC1CC1)c1nnc(C)n1-2 [Compound I-102] | < 500 | > 3000 | < 500
12 | CCNC(=O)C[C@@H]1N=C(c2ccc(CCCN(C)c3ncc(C(=O)N[C@H]4C(C)(C)[C@H](Oc5ccc(C#N)c(Cl)c5)C4(C)C)cn3)cc2)c2c(sc(C)c2C)-n2c(C)nnc21 [Compound I-104] | < 500 | < 500 | < 500
13 | CCNC(=O)C[C@@H]1N=C(c2ccc(N3CCN(CC4CCN(c5ncc(C(=O)N[C@H]6C(C)(C)[C@H](Oc7ccc(C#N)c(Cl)c7)C6(C)C)cn5)CC4)CC3)cc2)c2c(sc(C)c2C)-n2c(C)nnc21 [Compound I-105, N-[3-(3-chloro-4-cyano-phenoxy)-2,2,4,4-tetramethyl-cyclobutyl]-2-[4-[[4-[4-[(9S)-9-[2-(ethylamino)-2-oxo-ethyl]-4,5,13-trimethyl-3-thia-1,8,11,12-tetrazatricyclo[8.3.0.02,6]trideca-2(6),4,7,10,12-pentaen-7-yl]phenyl]piperazin-1-yl]methyl]-1-piperidyl]pyrimidine-5-carboxamide] | < 500 | < 500 | < 500
14 | CCNC(=O)C[C@@H]1N=C(c2ccc(N(C)CC3CN(c4ncc(C(=O)N[C@H]5C(C)(C)[C@H](Oc6ccc(C#N)c(Cl)c6)C5(C)C)cn4)C3)cc2)c2c(sc(C)c2C)-n2c(C)nnc21 [Compound I-107] | 500 to 1500 | 500 to 1500 | < 500
15 | CCNC(=O)C[C@@H]1N=C(c2ccc(N(C)CCN3CCN(c4ncc(C(=O)N[C@H]5C(C)(C)[C@H](Oc6ccc(C#N)c(Cl)c6)C5(C)C)cn4)CC3)cc2)c2c(sc(C)c2C)-n2c(C)nnc21 [Compound I-108] | 500 to 1500 | < 500 | < 500
16 | CCNC(=O)C[C@@H]1N=C(c2ccc(N(C)C3CN(CC4CCN(c5ncc(C(=O)N[C@H]6C(C)(C)[C@H](Oc7ccc(C#N)c(Cl)c7)C6(C)C)cn5)CC4)C3)cc2)c2c(sc(C)c2C)-n2c(C)nnc21 [Compound I-119] | < 500 | 500 to 1500 | < 500
17 | CCNC(=O)C[C@@H]1N=C(c2ccc(N3CC(N(C)C4CN(c5ncc(C(=O)N[C@H]6C(C)(C)[C@H](Oc7ccc(C#N)c(Cl)c7)C6(C)C)cn5)C4)C3)cc2)c2c(sc(C)c2C)-n2c(C)nnc21 [Compound I-121] | < 500 | 500 to 1500 | < 500
18 | CCNC(=O)C[C@@H]1N=C(c2ccc(N3CCC(N(C)C4CN(c5ncc(C(=O)N[C@H]6C(C)(C)[C@H](Oc7ccc(C#N)c(Cl)c7)C6(C)C)cn5)C4)CC3)cc2)c2c(sc(C)c2C)-n2c(C)nnc21 [Compound I-123] | < 500 | 500 to 1500 | < 500
19 | CCNC(=O)C[C@@H]1N=C(c2ccc(N3CCC(CN4CC(Oc5ncc(C(=O)N[C@H]6C(C)(C)[C@H](Oc7ccc(C#N)c(Cl)c7)C6(C)C)cn5)C4)CC3)cc2)c2c(sc(C)c2C)-n2c(C)nnc21 [Compound I-124] | 500 to 1500 | 1500 to 3000 | < 500

More lines, main results first:

Row | GI50 [3] [nM] | SMILES | GI50 [1] [nM] | GI50 [2] [nM]
20 | 500 to 1500 | CCNC(=O)C[C@@H]1N=C(c2ccc(N(C3CC3)C3CN(CC4CCN(c5ncc(C(=O)N[C@H]6C(C)(C)[C@H](Oc7ccc(C#N)c(Cl)c7)C6(C)C)cn5)CC4)C3)cc2)c2c(sc(C)c2C)-n2c(C)nnc21 [Compound I-129] | 1500 to 3000 | < 500
21 | 500 to 1500 | CCNC(=O)C[C@@H]1N=C(c2ccc(N(C)C3CC(OC4CCN(c5ncc(C(=O)N[C@H]6C(C)(C)[C@H](Oc7ccc(C#N)c(Cl)c7)C6(C)C)cn5)CC4)C3)cc2)c2c(sc(C)c2C)-n2c(C)nnc21 (stereo partly drawn) [Compound I-130] | 500 to 1500 | < 500
22 | < 500 | Cc1sc2c(c1C)C(c1ccc(CCCOC3CCN(c4ncc(C(=O)N[C@H]5C(C)(C)[C@H](Oc6ccc(C#N)c(Cl)c6)C5(C)C)cn4)CC3)cc1)=N[C@@H](Cc1ncco1)c1nnc(C)n1-2 [Compound I-131, N-[3-(3-chloro-4-cyano-phenoxy)-2,2,4,4-tetramethyl-cyclobutyl]-2-[4-[3-[4-[(9S)-4,5,13-trimethyl-9-(oxazol-2-ylmethyl)-3-thia-1,8,11,12-tetrazatricyclo[8.3.0.02,6]trideca-2(6),4,7,10,12-pentaen-7-yl]phenyl]propoxy]-1-piperidyl]pyrimidine-5-carboxamide] | < 500 | < 500
23 | < 500 | Cc1sc2c(c1C)C(c1ccc(CC3CC(C4CCN(c5ncc(C(=O)N[C@H]6C(C)(C)[C@H](Oc7ccc(C#N)c(Cl)c7)C6(C)C)cn5)CC4)C3)cc1)=NC(Cc1ncco1)c1nnc(C)n1-2 (stereo partly drawn) [Compound I-136] | > 3000 | < 500
24 | < 500 | Cc1sc2c(c1C)C(c1ccc(CC3CN(CC4CCN(c5ncc(C(=O)N[C@H]6C(C)(C)[C@H](Oc7ccc(C#N)c(Cl)c7)C6(C)C)cn5)CC4)C3)cc1)=N[C@@H](Cc1ncco1)c1nnc(C)n1-2 [Compound I-153] | 500 to 1500 | < 500
25 | < 500 | Cc1sc2c(c1C)C(c1ccc(C[C@H]3C[C@@H]([C@@H]4CCCN(c5ncc(C(=O)N[C@H]6C(C)(C)[C@H](Oc7ccc(C#N)c(Cl)c7)C6(C)C)cn5)C4)C3)cc1)=N[C@@H](Cc1ncco1)c1nnc(C)n1-2 [Compound I-161] | 500 to 1500 | < 500
26 | 500 to 1500 | Cc1sc2c(c1C)C(c1ccc(OC3CC4(CCN(c5ncc(C(=O)N[C@H]6C(C)(C)[C@H](Oc7ccc(C#N)c(Cl)c7)C6(C)C)cn5)CC4)C3)cc1)=NC(Cc1ncco1)c1nnc(C)n1-2 (stereo partly drawn) [Compound I-166] | 500 to 1500 | < 500
27 | < 500 | Cc1sc2c(c1C)C(c1ccc(OC3CN(CC4CCN(c5ncc(C(=O)N[C@H]6C(C)(C)[C@H](Oc7ccc(C#N)c(Cl)c7)C6(C)C)cn5)CC4)C3)cc1)=N[C@H](Cc1ncco1)c1nnc(C)n1-2 [Compound I-169] | > 3000 | < 500
28 | < 500 | Cc1sc2c(c1C)C(c1ccc(O[C@H]3CC[C@@]4(CCCN(c5ncc(C(=O)N[C@H]6C(C)(C)[C@H](Oc7ccc(C#N)c(Cl)c7)C6(C)C)cn5)C4)CC3)cc1)=N[C@@H](Cc1ncco1)c1nnc(C)n1-2 [Compound I-172] | 500 to 1500 | < 500
29 | < 500 | Cc1sc2c(c1C)C(c1ccc(N3CC(C4CCN(c5ncc(C(=O)N[C@H]6C(C)(C)[C@H](Oc7ccc(C#N)c(Cl)c7)C6(C)C)cn5)CC4)C3)cc1)=NC(Cc1ncco1)c1nnc(C)n1-2 (stereo partly drawn) [Compound I-209] | > 3000 | < 500
